How the values were obtained:
[1] = Evaluation of % alum binding at pH 6.5 (HPLC-MS/MS of supernatant); assay type: physicochemical; conditions: 1 mg/mL formulation with aluminum hydroxide adjuvant in Histidine buffer, stirred at 25° C. overnight, control without aluminum hydroxide
Description: Evaluation of % Alum Binding
The binding of certain compounds of Formula (I) to aluminum-containing adjuvants at pH 6.5 was evaluated using HPLC-MS/MS to monitor the presence of the compound of Formula (I) in the supernatant.
Evaluation of Binding at pH 6.5
To a mixture of compound (4 mg/mL) in Endotox free water was added 1 M NaOH (2.1 eq) to achieve a clear solution. A mixture of the resulting solution (0.5 mL), Endotox free water (0.86 mL), 100 mM Histidine buffer (0.2 mL) and aluminum hydroxide adjuvant (13.78 mg/mL, 0.44 mL) was stirred at 25° C. overnight to result in a 1 mg/mL formulation. An additional 1 mg/mL formulation was prepared as control in 10 mM Histidine buffer without aluminum hydroxide.
Three 50 uL aliquots of each formulation (in Histidine buffer with and without aluminum hydroxide) were centrifuged at 14,000 rpm for 10 minutes at 4° C. The supernatant was diluted, treated with an internal standard and analyzed by HPLC-MS/MS using a ballistic gradient (from 50% CH3CN-1.0% NH4OH to 95% CH3CN-1.0% NH4OH in 1.5 minutes) on a C8 ([…]×2.1 mm) Waters XBridge column at ambient temperature. The supernatant concentration was determined for each formulation. The fraction in the aluminum hydroxide formulation bound to alum was calculated as follows: […]

human TLR2 = human TLR2 (Homo sapiens, UniProt O60603); test: Reporter gene assay: HEK 293 cells stably transfected with human TLR2 and NF-kB-driven luciferase reporter; conditions: for Emax: HEK293, 7 h, read-out: Hek-TLR2 (% Eff); for EC50: Hek-TLR2 μM (EC50), HEK 293 stably transfected with human TLR2 and pNifty-Luciferase, 7 hours incubation, concentration giving 50% of maximal signal
Sequence of human TLR2 (O60603 21-784): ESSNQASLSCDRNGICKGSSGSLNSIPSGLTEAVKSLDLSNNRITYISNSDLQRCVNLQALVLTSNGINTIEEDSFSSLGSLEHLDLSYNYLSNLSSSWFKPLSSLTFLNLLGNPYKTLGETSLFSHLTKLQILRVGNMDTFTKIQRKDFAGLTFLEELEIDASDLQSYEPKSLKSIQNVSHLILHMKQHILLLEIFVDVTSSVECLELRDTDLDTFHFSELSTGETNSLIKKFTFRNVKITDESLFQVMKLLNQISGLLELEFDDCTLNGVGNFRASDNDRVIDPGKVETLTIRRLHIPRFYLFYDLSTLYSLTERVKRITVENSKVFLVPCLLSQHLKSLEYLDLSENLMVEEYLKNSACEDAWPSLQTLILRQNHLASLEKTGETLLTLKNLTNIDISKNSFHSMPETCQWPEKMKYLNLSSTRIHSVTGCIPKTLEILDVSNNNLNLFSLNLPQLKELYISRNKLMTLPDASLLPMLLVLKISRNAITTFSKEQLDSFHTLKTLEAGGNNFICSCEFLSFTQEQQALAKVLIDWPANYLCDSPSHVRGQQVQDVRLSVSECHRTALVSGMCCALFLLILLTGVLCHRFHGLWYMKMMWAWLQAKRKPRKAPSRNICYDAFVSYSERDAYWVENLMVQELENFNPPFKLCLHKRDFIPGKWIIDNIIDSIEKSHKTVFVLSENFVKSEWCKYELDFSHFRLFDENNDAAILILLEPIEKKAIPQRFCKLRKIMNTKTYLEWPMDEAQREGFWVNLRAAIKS
Description: As a control assay, normal Hek293 transfected with pNifty-Luc were used. […] Bright-Glo™ Luciferase assay buffer and substrate were supplied by Promega #E263B and #E264B (assay substrate and buffer respectively). 384 well clear-bottom plates were supplied by Greiner bio-one (#789163-G) and were custom bar-coded plates.
Cells were plated at 25,000 cells/well in 384-well plates in a final volume of 50 μl of media. Cells were allowed to adhere to the plates after overnight (18 hours) culture at 37° C. and 5% CO2. Serially diluted experimental and positive control compounds were then dispensed to each well and incubated for 7 hours at 37° C. and 5% CO2. Cells stimulated with DMSO alone also serve as negative controls. After the incubation, 30 μl of the pre-mix assay buffer and substrate buffer were added to each well according to manufacturer's instructions. The luminescence signal was read on a CLIPR machine with an integration time of 20 seconds per plate.

Row | Structure (SMILES) | Alum Binding % [1] [%] | Emax (human TLR2) [%] | EC50 (human TLR2) [nM]
1 | CCCCCCCCCCCC(=O)OC[C@H](CSC[C@H](N)C(=O)NC1(COCCCP(=O)(O)O)CC1)OC(=O)CCCCCCCCCCC [Example 15, 3-((1-((R)-2-amino-3-((R)-2,3-bis(dodecanoyloxy)propylthio)propanamido)cyclopropyl)methoxy)propylphosphonic acid] | >80 | – | –
2 | CCCCCCCCCCCC(=O)OC[C@H](CSC[C@H](N)C(=O)NCCOCCP(=O)(O)O)OC(=O)CCCCCCCCCCC [Example 3, (8R,12R)-8-amino-12-(dodecanoyloxy)-7,15-dioxo-3,14-dioxa-10-thia-6-azahexacosylphosphonic acid] | >80 | 103 | 119
3 | CCCCCCCCCCCC(=O)OC[C@H](CSC[C@H](N)C(=O)NCCOCCOCCOCCP(=O)(O)O)OC(=O)CCCCCCCCCCC [Example 18, (14R,18R)-14-amino-18-(dodecanoyloxy)-13,21-dioxo-3,6,9,20-tetraoxa-16-thia-12-azadotriacontylphosphonic acid] | >80 | 96 | 270
4 | CCCCCCCCCCCC(=O)OC[C@H](CSC[C@H](N)C(=O)NCCOCCOCCP(=O)(O)O)OC(=O)CCCCCCCCCCC [Example 5, (11R,15R)-11-amino-15-(dodecanoyloxy)-10,18-dioxo-3,6,17-trioxa-13-thia-9-azanonacosylphosphonic acid] | >80 | – | –
5 | CCCCCCCCCCCCOC[C@H](CSC[C@H](N)C(=O)NCCOCCOCCOCCP(=O)(O)O)OCCCCCCCCCCCC [Example 20, (14R,18R)-14-amino-18-(dodecyloxy)-13-oxo-3,6,9,20-tetraoxa-16-thia-12-azadotriacontylphosphonic acid] | >80 | 84 | 552
6 | CCCCCCCCCCCCOC[C@H](CSC[C@H](N)C(=O)NCCOCCOCCOCCP(=O)(O)O)NC(=O)CCCCCCCCCCC [Example 26, ((14R,18R)-14-amino-18-dodecanamido-13-oxo-3,6,9,20-tetraoxa-16-thia-12-azadotriacontyl)phosphonic acid] | >80 | 28 | 1750
7 | CCCCCCCCCCCC(=O)OC[C@H](CSC[C@H](N)C(=O)NCCCOCCCCOCCCN)OC(=O)CCCCCCCCCCC [Example 8, (2R,6R)-6,20-diamino-7-oxo-12,17-dioxa-4-thia-8-azaicosane-1,2-diyl didodecanoate] | – | 98 | 810
8 | CCCCCCCCCCCC(=O)OC[C@H](CSC[C@H](N)C(=O)NCCCOCCOCCOCCCN)OC(=O)CCCCCCCCCCC [Example 64, (16R,20R)-1,16-diamino-15-oxo-4,7,10-trioxa-18-thia-14-azahenicosane-20,21-diyl didodecanoate] | – | 124 | 498
9 | CCCCCCCCCCCCOC[C@H](CSC[C@H](N)C(=O)NCCOCCOCCC(F)(F)P(=O)(O)O)OCCCCCCCCCCCC [Example 22, (12R,16R)-12-amino-16-(dodecyloxy)-1,1-difluoro-11-oxo-4,7,18-trioxa-14-thia-10-azatriacontylphosphonic acid] | – | 60 | 2450
10 | CCCCCCCCCCCCOC[C@H](CSC[C@H](N)C(=O)N[C@@H](CO)C(=O)NCCOCCOCCP(=O)(O)O)OCCCCCCCCCCCC [Example 80, ((11S,14R,18R)-14-amino-18-(dodecyloxy)-11-(hydroxymethyl)-10,13-dioxo-3,6,20-trioxa-16-thia-9,12-diazadotriacontyl)phosphonic acid] | – | 52 | 1910
11 | CCCCCCCCCCCC(=O)OC[C@H](CSC[C@H](N)C(=O)N[C@@H](CO)C(=O)NCCOCCOCCOCCC(=O)O)OC(=O)CCCCCCCCCCC [Example 88, (15S,18R,22R)-18-amino-22-(dodecanoyloxy)-15-(hydroxymethyl)-14,17,25-trioxo-4,7,10,24-tetraoxa-20-thia-13,16-diazahexatriacontan-1-oic acid] | – | 145 | 9.2
12 | CCCCCCCCCCCCCCCCOC[C@H](CSC[C@H](N)C(=O)NCCOCCOCCOCCP(=O)(O)O)OCCCCCCCCCCCCCCCC [Example 76, ((14R,18R)-14-amino-18-(hexadecyloxy)-13-oxo-3,6,9,20-tetraoxa-16-thia-12-azahexatriacontyl)phosphonic acid] | – | 109 | 3450
13 | CCCCCCCCCCCCOC[C@H](CSC[C@H](N)C(=O)N[C@@H](C)COCCOCCOCCP(=O)(O)O)NC(=O)CCCCCCCCCCC [Example 28, ((11S,14R,18R)-14-amino-18-dodecanamido-11-methyl-13-oxo-3,6,9,20-tetraoxa-16-thia-12-azadotriacontyl)phosphonic acid] | – | 37 | 990
14 | CCCCCCCC(=O)OC[C@H](CSC[C@H](N)C(=O)NCCOCCOCCOCCP(=O)(O)O)OC(=O)CCCCCCC [Example 23, (14R,18R)-14-amino-18-(octanoyloxy)-13,21-dioxo-3,6,9,20-tetraoxa-16-thia-12-azaoctacosylphosphonic acid] | – | 73 | 3040
15 | CCCCCCCCCCCC(=O)OC[C@H](CSC[C@H](N)C(=O)NCCCC(F)(F)P(=O)(O)O)OC(=O)CCCCCCCCCCC [Example 19, 4-((R)-2-amino-3-((R)-2,3-bis(dodecanoyloxy)propylthio)propanamido)-1,1-difluorobutylphosphonic acid] | >80 | – | –
16 | CCCCCCCCCCCC(=O)OC[C@H](CSC[C@H](N)C(=O)NC(Cc1ccccc1)c1ccccc1)OC(=O)CCCCCCCCCCC (stereo partly drawn) [Example 67, (2R)-3-(((2R)-2-amino-3-((1,2-diphenylethyl)amino)-3-oxopropyl)thio)propane-1,2-diyl didodecanoate] | – | 64 | 68
17 | CCCCCCCCCCCC(=O)OC[C@H](CSC[C@H](N)C(=O)NC(CC)COC)OC(=O)CCCCCCCCCCC (stereo partly drawn) [Example 63, (2R)-3-(((2R)-2-amino-3-((1-methoxybutan-2-yl)amino)-3-oxopropyl)thio)propane-1,2-diyl didodecanoate] | – | 96 | 71.8
